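Cultured in 96-well plates, cells were exposed to test compound for 48 hours across five concentrations. GI50 marks 50% less growth.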 Active and inactive are the calls of the source. Rule as the data show it: active = GI50 up to about 1.1 µM and inactive = higher. Where only a bound is given, the exact number is not on record here.

7 molecules from ChEMBL document CHEMBL1201862, “PubChem BioAssay data set” (2004) can be followed below.

Test systems include HCT-15; MDA-N; HOP-92; KM12; SK-OV-3; HT-29; NCI-H460; EKVX; U-251; NCI-H522; LOX IMVI; SK-MEL-28; SN12C; T47D; SW-620; SR; NCI-H23; HL-60; OVCAR-8; HOP-62.
What all share (test): growth of human tumour cells (NCI), 48 h

As to `O=C1C(c2c(O)[nH]c3ccc(Br)cc23)=Nc2ccccc21`, the GI50 in the assay on HCT-15 is 5.41 µM; with MDA-N, 14 µM (inactive); in the assay on HOP-92, 16.6 µM (inactive); in the assay with KM12, 2.92 µM (inactive); in the assay with SK-OV-3 it was 13 µM (inactive); in the assay with HT-29, 4.28 µM (inactive). Also, the GI50 with NCI-H460 is 12.7 µM (inactive); in the assay on EKVX, 2.93 µM (inactive); with U-251 it was 12.8 µM (inactive); in the assay on NCI-H522 it was 14.7 µM (inactive); in the assay with LOX IMVI, 8.55 µM (inactive); in the assay on SK-MEL-28, 29 µM (inactive). For the same molecule, the GI50 in the assay with SN12C is 28 µM (inactive); in the assay with T47D, 8.63 µM (inactive); with SW-620, 12.7 µM (inactive); in the assay with SR, 6.73 µM (inactive); in the assay on NCI-H23 it was 12.4 µM (inactive); in the assay with HL-60 it was 96.2 µM (inactive). Moreover, the values for the GI50 in the assay on OVCAR-8 and in the assay on HOP-62 were 6.78 µM (inactive) and 12.4 µM (inactive), respectively.
As for `O=C1C([P+](c2ccccc2)(c2ccccc2)c2ccccc2)=C([O-])C(=Cc2ccc(Cl)c(Cl)c2)C([O-])=C1[P+](c1ccccc1)(c1ccccc1)c1ccccc1`, the GI50 in the assay on HCT-15 was 4.79 µM; with MDA-N, 1.9 µM (inactive); with HOP-92, 2.34 µM (inactive); in the assay with KM12 it was 2.01 µM (inactive); in the assay with SK-OV-3 it was 1.93 µM (inactive); with HT-29, 1.91 µM (inactive). For the same molecule, the GI50 in the assay on NCI-H460 is 2.89 µM (inactive); in the assay with EKVX, 2.47 µM (inactive); in the assay on U-251 it was 2.47 µM (inactive); in the assay on NCI-H522 it was 1.8 µM (inactive); in the assay with LOX IMVI it was 1.06 µM (active); in the assay on SK-MEL-28, 2.49 µM (inactive). Also, the GI50 in the assay with SN12C is 2.43 µM (inactive); in the assay with T47D it was 3.37 µM (inactive); in the assay with SW-620 it was 2.17 µM (inactive); in the assay with SR, 0.925 µM (active); in the assay on NCI-H23 it was 3.51 µM (inactive); with HL-60, 0.735 µM (active). Besides, the GI50 in the assay with OVCAR-8 is 2.23 µM (inactive); with HOP-62, 3.54 µM (inactive).
`C=Cc1ccccc1C1C(C(=O)OCC)=C(C)N=C2OC(C(=O)OC)C(=O)N21` (stereo not given): the GI50 was greater than 100 µM with HCT-15; > 100 µM (inactive) with MDA-N; > 100 µM (inactive) with HOP-92; > 100 µM (inactive) in the assay with KM12; > 100 µM (inactive) with SK-OV-3; > 100 µM (inactive) in the assay on HT-29. The GI50 in the assay with NCI-H460, in the assay with EKVX, in the assay with U-251, in the assay on NCI-H522, in the assay with LOX IMVI and in the assay on SK-MEL-28 was > 100 µM (inactive) in each case. In addition, the GI50 is > 100 µM (inactive) with SN12C; > 100 µM (inactive) in the assay on T47D; > 100 µM (inactive) with SW-620; > 100 µM (inactive) in the assay on SR; > 100 µM (inactive) in the assay on NCI-H23; 87.5 µM (inactive) in the assay with HL-60. Besides, the GI50 in the assay on OVCAR-8 and in the assay with HOP-62 was > 100 µM (inactive) in each case.
For `Cc1ccc(-c2nc(N/N=C/C=C/c3ccccc3)c3ccccc3n2)cc1`, the GI50 in the assay with HCT-15 was 48.4 µM; in the assay with MDA-N it was 74.6 µM (inactive); in the assay with HOP-92 it was 31.3 µM (inactive); with KM12, 54 µM (inactive); in the assay on SK-OV-3 it was 23.8 µM (inactive); with HT-29, 32.8 µM (inactive). Further, the GI50 with NCI-H460 is 28.6 µM (inactive); with EKVX it was 15 µM (inactive); with U-251, 33.3 µM (inactive); with NCI-H522, 21.3 µM (inactive); in the assay on LOX IMVI it was 48.6 µM (inactive); in the assay with SK-MEL-28, 34.2 µM (inactive). Further, the GI50 was 24.8 µM (inactive) in the assay on SN12C; 60.5 µM (inactive) in the assay with T47D; 29.1 µM (inactive) in the assay with SW-620; > 100 µM (inactive) with SR; 44.1 µM (inactive) with NCI-H23; > 100 µM (inactive) with HL-60. The GI50 was 44.2 µM (inactive) in the assay on OVCAR-8 and 64.4 µM (inactive) with HOP-62.
For `Cc1nn(C(=O)c2ccc(Cl)cc2)c2c1C(c1ccc([N+](=O)[O-])cc1)SC(=N)N2` (stereo not given), the GI50 in the assay on HCT-15 is greater than 10 µM; in the assay on MDA-N, > 10 µM (inactive); in the assay with HOP-92 it was > 10 µM (inactive); with KM12, > 10 µM (inactive); in the assay with SK-OV-3 it was > 10 µM (inactive); in the assay on HT-29, > 10 µM (inactive). In addition, the GI50 in the assay on NCI-H460, with EKVX, in the assay on U-251, in the assay on NCI-H522, with LOX IMVI and in the assay with SK-MEL-28 was > 10 µM (inactive) each time. Besides, the GI50 with SN12C, in the assay on T47D, with SW-620, in the assay on SR, in the assay with NCI-H23 and with HL-60 was > 10 µM (inactive) in each case. The GI50 in the assay on OVCAR-8 and in the assay with HOP-62 was > 10 µM (inactive) throughout.
As to `CCC1(OC(=O)CN2CCN(CCO)CC2)C(=O)OCc2c1cc1n(c2=O)Cc2cc3ccccc3nc2-1` (stereo not given), the GI50 is 1.49 µM with HCT-15; 1.63 µM (inactive) in the assay with MDA-N; 1.26 µM (inactive) in the assay on HOP-92; 0.457 µM (active) in the assay with KM12; 1.17 µM (inactive) in the assay with SK-OV-3; 0.931 µM (active) with HT-29. Moreover, the GI50 in the assay on NCI-H460 was 0.0614 µM (active); with EKVX, 4.51 µM (inactive); in the assay on U-251, 0.143 µM (active); in the assay with NCI-H522, 0.306 µM (active); in the assay with LOX IMVI it was 0.18 µM (active); in the assay on SK-MEL-28, 3.33 µM (inactive). Also, the GI50 with SN12C was 0.125 µM (active); in the assay on T47D, 0.212 µM (active); in the assay with SW-620 it was 0.0991 µM (active); in the assay on SR, 0.0221 µM (active); in the assay with NCI-H23 it was 0.167 µM (active); with HL-60, 0.286 µM (active). In addition, the GI50 in the assay on OVCAR-8 is 0.522 µM (active); in the assay on HOP-62, 0.0867 µM (active).
As to `COC12c3ccccc3-c3ccccc3C1[C@@H](C(=O)O)[C@H]2C(=O)O` (stereo not given in full), the GI50 with HCT-15 was greater than 10 µM; in the assay on MDA-N it was > 10 µM (inactive); with HOP-92, > 10 µM (inactive); in the assay with KM12 it was > 10 µM (inactive); in the assay on SK-OV-3 it was > 10 µM (inactive); with HT-29 it was > 10 µM (inactive). For the same molecule, the GI50 in the assay on NCI-H460, with EKVX, in the assay with U-251, with NCI-H522, in the assay with LOX IMVI and with SK-MEL-28 was > 10 µM (inactive) in each case. In addition, the GI50 in the assay with SN12C, in the assay on T47D, in the assay on SW-620, in the assay on SR, with NCI-H23 and in the assay on HL-60 was > 10 µM (inactive) throughout. The GI50 in the assay on OVCAR-8 and in the assay on HOP-62 was > 10 µM (inactive) in each case.
